Literature values in patent US11793769B2, “Device with compositions for delivery to the lungs, the oral mucosa and the brain” (priority 2014, dated 2023).

Experiments:
[1] = tested on: animal models of anxiety and depression; conditions: in vivo
[2] = biological target: cannabinoid type II receptor (CB2) (Homo sapiens, UniProt P34972); conditions: compared with CB1
[3] = tested on: paclitaxel-induced neuropathic pain; conditions: without affecting the efficacy of the chemotherapy

cannabinoid type II receptor (CB2), sequence (P34972 whole entry, species assumed): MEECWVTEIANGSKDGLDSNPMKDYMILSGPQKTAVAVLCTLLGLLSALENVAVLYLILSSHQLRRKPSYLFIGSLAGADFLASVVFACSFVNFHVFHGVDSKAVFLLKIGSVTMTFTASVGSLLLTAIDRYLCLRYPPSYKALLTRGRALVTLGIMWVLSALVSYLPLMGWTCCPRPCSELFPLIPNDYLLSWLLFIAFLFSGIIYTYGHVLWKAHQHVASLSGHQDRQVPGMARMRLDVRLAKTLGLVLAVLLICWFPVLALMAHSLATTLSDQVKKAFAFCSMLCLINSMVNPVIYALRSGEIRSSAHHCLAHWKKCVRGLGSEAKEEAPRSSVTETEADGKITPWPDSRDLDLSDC

SMILES: C=C(C)[C@@H]1CCC(C)=C[C@H]1c1c(O)cc(CCCCC)cc1O [CBD, cannabidiol]
- effects in animal models of anxiety and depression [1]: both anti-anxiety and antidepressant effects
- affinity to CB2 [2]: higher affinity
- effect on paclitaxel-induced neuropathic pain [3]: inhibits paclitaxel-induced neuropathic pain
